We go through 22 compounds from patent publication US20170334899A1, “AMINO-SUBSTITUTED ISOTHIAZOLES” (Bayer Pharma Aktiengesellschaft, priority 2014, published 2017).

Counter-ions that a name gives are not always drawn.

The target in this test is T1, human kinase Mps-1 (Homo sapiens, UniProt P33981).
T1 construct: N-terminally GST-tagged human full length recombinant Mps-1 kinase; GST (N); purchased Invitrogen, Karslruhe, Germany PV4071
T1 sequence (P33981 1-857): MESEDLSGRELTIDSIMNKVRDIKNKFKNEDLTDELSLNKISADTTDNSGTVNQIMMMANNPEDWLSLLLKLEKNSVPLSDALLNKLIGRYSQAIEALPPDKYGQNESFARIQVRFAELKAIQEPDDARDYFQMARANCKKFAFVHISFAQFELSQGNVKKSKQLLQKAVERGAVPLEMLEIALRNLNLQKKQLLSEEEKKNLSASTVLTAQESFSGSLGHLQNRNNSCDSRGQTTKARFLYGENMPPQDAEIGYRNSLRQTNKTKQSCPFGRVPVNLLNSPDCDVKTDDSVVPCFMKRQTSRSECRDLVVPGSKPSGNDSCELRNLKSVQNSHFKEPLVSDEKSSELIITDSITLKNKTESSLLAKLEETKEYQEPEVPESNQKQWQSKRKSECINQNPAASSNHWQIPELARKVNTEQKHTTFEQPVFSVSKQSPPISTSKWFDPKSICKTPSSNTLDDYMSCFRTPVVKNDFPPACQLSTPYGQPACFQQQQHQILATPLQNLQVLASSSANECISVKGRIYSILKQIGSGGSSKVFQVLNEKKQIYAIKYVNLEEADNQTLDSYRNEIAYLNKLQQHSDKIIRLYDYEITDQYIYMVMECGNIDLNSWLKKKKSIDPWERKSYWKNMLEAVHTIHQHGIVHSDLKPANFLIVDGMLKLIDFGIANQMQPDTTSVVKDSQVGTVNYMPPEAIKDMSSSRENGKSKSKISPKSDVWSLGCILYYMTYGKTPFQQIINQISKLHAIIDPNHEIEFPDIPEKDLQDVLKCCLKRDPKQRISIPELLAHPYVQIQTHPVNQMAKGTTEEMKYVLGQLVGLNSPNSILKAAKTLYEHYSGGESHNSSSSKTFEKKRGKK
In words: Mps-1 kinase assay (TR-FRET). It is filed as biochemical. Conditions: Mps-1 TR-FRET kinase assay; avg; read-out: Mps1 avg (IC50 [mol/l]). In short, it runs like this: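 Inhibition normalised between uninhibited reaction (0%) and enzyme-free wells (100%), using the blank-corrected TR-FRET 665/620 nm ratio after EDTA stop. Reaction: ~0.5 nM GST-Mps-1 full length, 10 μM ATP, 1 μM biotin-peptide, 60 min at 22 °C, after 15 min compound pre-binding, pH 7.7.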

On to `Cc1nsc(Nc2cnc(C(F)(F)F)cn2)c1C(=O)Nc1ccc(C(=O)O)cc1` [Example 97, 4-{[(3-Methyl-5-{[5-(trifluoromethyl)pyrazin-2-yl]amino}-1,2-thiazol-4-yl)carbony]-amino}benzoic acid], for which the IC50 was no less than 20 µM.
Take `CNS(=O)(=O)c1ccc(NC(=O)c2c(C)nsc2Nc2cnc3ccccc3n2)cc1` [Example 111, 3-Methyl-N-[4-(methylsulfannoyl)phenyl]-5-(quinoxalin-2-ylamino)-1,2-thiazole-4-carboxamide]: the IC50 is no less than 20 µM.
To `Cc1nsc(Nc2cnc(C(F)(F)F)cn2)c1C(=O)Nc1ccc(OC2CCN(CC(F)(F)F)CC2)nc1` [Example 9, -Methyl-N-(6-{[1-(2,2,2-trifluoroethyl)piperidin-4-yl]oxy}pyridin-3-yl)-5-{[5-(trifluoromethyl)pyrazin-2-yl]amino}-1,2-thiazole-4-carboxamide] belongs no less than 20 µM; to `Cc1nsc(Nc2cnc(C(F)(F)F)cn2)c1C(=O)Nc1ccc(O[C@@H]2CCN(CC(F)F)C[C@@H]2F)nc1` [Example 137, N-(6-{[(3S,4R)-1-(2,2-difluoroethyl)-3-fluoropiperidin-4-yl]oxy}pyridin-3-yl)-3-methyl-5-{[5-(trifluoromethyl)pyrazin-2-yl]amino}-1,2-thiazole-4-carboxamide], greater than 20 µM; to `Cc1nsc(Nc2cnc(C(F)(F)F)cn2)c1C(=O)Nc1ccc(O[C@@H]2CCN(CC(F)(F)F)C[C@@H]2F)nc1` [Example 138, N-(6-{[(3S,4R)-3-fluoro-1-(2,2,2-trifluoroethyl)piperidin-4-yl]oxy}pyridin-3-yl)-3-methyl-5-{[5-(trifluoromethyl)pyrazin-2-yl]amino}-1,2-thiazole-4-carboxamide], greater than 20 µM.
Turning to `Cc1nsc(Nc2cnc3ccccc3n2)c1C(=O)Nc1ccc(S(C)(=O)=O)cc1` [Example 115, 3-Methyl-N-[4-(methylsulfonyl)phenyl]-5-(quinoxalin-2-ylamino)-1,2-thiazole-4-carboxamide], the IC50 was no less than 20 µM.
As to `Cc1nsc(Nc2cnc(C(F)(F)F)cn2)c1C(=O)Nc1ccc(O[C@H]2CCN(CC(F)F)C[C@H]2F)nc1` [Example 144, N-(6-{[(3R,4S)-1-(2,2-difluoroethyl)-3-fluoropiperidin-4-yl]oxy}pyridin-3-yl)-3-methyl-5-{[5-(trifluoromethyl)pyrazin-2-yl]amino}-1,2-thiazole-4-carboxamide], the IC50 was greater than 20 µM.
Consider `Cc1nsc(Nc2ccc(C#N)cn2)c1C(=O)Nc1ccc(Oc2cccc(C(F)(F)F)c2)nc1` [Example 118, 5-[(5-Cyanopyridin-2-yl)amino]-3-methyl-N-{6-[3-(trifluoromethyl)phenoxy]pyridin-3-yl}-1,2-thiazole-4-carboxamide], for which the IC50 was no less than 20 µM.
To `Cc1nsc(Nc2cnc(C(F)(F)F)cn2)c1C(=O)Nc1ccc(C(=O)N2CCN(CC(F)F)CC2)cc1` [Example 154, N-(4-{[4-(2,2-difluoroethyl)piperazin-1-yl]carbonyl}phenyl)-3-methyl-5-{[5-(trifluoromethyl)pyrazin-2-yl]amino}-1,2-thiazole-4-carboxamide] belongs greater than 20 µM; to `Cc1nsc(Nc2cnc3ccccc3n2)c1C(=O)Nc1cccc(C(=O)N2CCN(C)CC2)c1` [Example 102, 3-Methyl-N-{3-[(4-methylpiperazin-1-yl)carbonyl]phenyl}-5-(quinoxalin-2-ylamino)-1,2-thiazole-4-carboxamide], no less than 20 µM.
To `Cc1nsc(Nc2cnc(C(F)(F)F)cn2)c1C(=O)Nc1ccc(OCC2CCN(CC(F)F)C2)nc1` (stereo not shown) [Example 122, N-(6-{[1-(2,2-difluoroethyl)pyrrolidin-3-yl]methoxy}pyridin-3-yl)-3-methyl-5-{[5-(trifluoromethyl)pyrazin-2-yl]amino}-1,2-thiazole-4-carboxamide] belongs no less than 20 µM; to `Cc1nsc(Nc2cnc(C(F)(F)F)cn2)c1C(=O)Nc1ccc(O[C@H]2CCN(CCC(F)(F)F)C[C@H]2F)nc1` [Example 146, N-(6-{[(3R,4S)-3-fluoro-1-(3,3,3-trifluoropropyl)piperidin-4-yl]oxy}pyridin-3-yl)-3-methyl-5-{[5-(trifluoromethyl)pyrazin-2-yl]amino}-1,2-thiazole-4-carboxamide], greater than 20 µM; to `Cc1nsc(Nc2cnc(C(F)(F)F)cn2)c1C(=O)Nc1ccc(OC2CCN(CCC(F)(F)F)CC2)nc1` [Example 426, 3-Methyl-5-{[5-(trifluoromethyl)pyrazin-2-yl]amino}-N-(6-{[1-(3,3,3-trifluoro-propyl)piperidin-4-yl]oxy}pyridin-3-yl)-1,2-thiazole-4-carboxamide, Salt with Hydrochloric Acid], no less than 20 µM.
To `COc1ccc(NC(=O)c2c(C)nsc2Nc2ccc(C#N)cn2)c(N2CCOCC2)n1` [Example 173, 5-[(5-cyanopyridin-2-yl)amino]-N-[6-methoxy-2-(morpholin-4-yl)pyridin-3-yl]-3-methyl-1,2-thiazole-4-carboxamide] belongs greater than 20 µM.
With `Cc1nsc(Nc2cnc(C(F)(F)F)cn2)c1C(=O)Nc1ccc(OC2CCN(CC(F)F)CC2)c(F)c1` [Example 164, N-(4-{[1-(2,2-difluoroethyl)piperidin-4-yl]oxy}-3-fluorophenyl)-3-methyl-5-{[5-(trifluoromethyl)pyrazin-2-yl]amino}-1,2-thiazole-4-carboxamide], the IC50 was greater than 20 µM.
Take `Cc1nsc(Nc2ccc(C#N)cn2)c1C(=O)Nc1ccc(N[C@@H](C)C(=O)OC(C)(C)C)nc1` [Example 170, tert-butyl N-{5-[({5-[(5-cyanopyridin-2-yl)amino]-3-methyl-1,2-thiazol-4-yl}carbonyl)amino]pyridin-2-yl}alaninate]: the IC50 was greater than 20 µM.
To `Cc1nsc(Nc2cnc(C(F)(F)F)cn2)c1C(=O)Nc1ccc(C(=O)OC(C)(C)C)cc1` [Example 96, tert-Butyl 4-{[(3-methyl-5-{[5-(trifluoromethyl)pyrazin-2-yl]amino}-1,2-thiazol-4-yl)carbonyl]amino}benzoate] belongs no less than 20 µM; to `CCCN1CC[C@@H](Oc2ccc(NC(=O)c3c(C)nsc3Nc3cnc(C(F)(F)F)cn3)cn2)[C@@H](F)C1` [Example 140, N-(6-{[(3S,4R)-3-fluoro-1-propylpiperidin-4-yl]oxy}pyridin-3-yl)-3-methyl-5-{[5-(trifluoromethyl)pyrazin-2-yl]amino}-1,2-thiazole-4-carboxamide], greater than 20 µM; to `Cc1nsc(Nc2ccc(C#N)cn2)c1C(=O)Nc1cccc(S(C)(=O)=O)c1` [Example 150, 5-[(5-cyanopyridin-2-yl)amino]-3-methyl-N-[3-(methylsulfonyl)phenyl]-1,2-thiazole-4-carboxamide], greater than 20 µM.
As to `Cc1nsc(Nc2cncc(C(F)(F)F)n2)c1C(=O)Nc1ccc(OC2CCN(C(=O)OC(C)(C)C)CC2)nc1` [Example 12, tert-Butyl 4-[(5-{[(3-methyl-5-{[6-(trifluoromethyl)pyrazin-2-yl]amino}-1,2-thiazol-4-yl)carbonyl]amino}pyridin-2-yl)oxy]piperidine-1-carboxylate], the IC50 was no less than 20 µM.
`Cc1nsc(Nc2cnc(C(F)(F)F)cn2)c1C(=O)Nc1ccc(OC2CCN(CC(F)F)CC2)nc1` [Example 8, N-(6-{[1-(2,2-Difluoroethyl)piperidin-4-yl]oxy}pyridin-3-yl)-3-methyl-5-{[5-(trifluoromethyl)pyrazin-2-yl]amino}-1,2-thiazole-4-carboxamide]: the IC50 is no less than 20 µM.
Turning to `Cc1nsc(Nc2cnc(C(F)(F)F)cn2)c1C(=O)Nc1ccc(OCC2CCN(CC(F)(F)F)C2)nc1` (stereo not shown) [Example 123, 3-Methyl-N-(6-{[1-(2,2,2-trifluoroethyl)pyrrolidin-3-yl]methoxy}pyridin-3-yl)-5-{[5-(trifluoromethyl)pyrazin-2-yl]amino}-1,2-thiazole-4-carboxamide], the IC50 is no less than 20 µM.
